Assay [1] deals with myocardial ATP levels. The assay can be described thus: Myocardial ATP levels in hearts of streptozotocin-treated rats. Particulars: hearts 6 weeks after STZ injection (50 mg/kg).
Assay [2] has as its system mitochondrial δPKC levels. The assay can be described thus: Mitochondrial δPKC levels (Western blot) in hearts of streptozotocin-treated rats. Particulars: hearts 6 weeks after STZ injection (50 mg/kg).
Assay [3] deals with T1, δPKC-dF1Fo co-IP (Rattus norvegicus, UniProt P09215).
T1 construct: endogenous in cells; host or cells: neonatal rat cardiac myocytes (NCMs), isolated mitochondria
T1 sequence (P09215 whole entry): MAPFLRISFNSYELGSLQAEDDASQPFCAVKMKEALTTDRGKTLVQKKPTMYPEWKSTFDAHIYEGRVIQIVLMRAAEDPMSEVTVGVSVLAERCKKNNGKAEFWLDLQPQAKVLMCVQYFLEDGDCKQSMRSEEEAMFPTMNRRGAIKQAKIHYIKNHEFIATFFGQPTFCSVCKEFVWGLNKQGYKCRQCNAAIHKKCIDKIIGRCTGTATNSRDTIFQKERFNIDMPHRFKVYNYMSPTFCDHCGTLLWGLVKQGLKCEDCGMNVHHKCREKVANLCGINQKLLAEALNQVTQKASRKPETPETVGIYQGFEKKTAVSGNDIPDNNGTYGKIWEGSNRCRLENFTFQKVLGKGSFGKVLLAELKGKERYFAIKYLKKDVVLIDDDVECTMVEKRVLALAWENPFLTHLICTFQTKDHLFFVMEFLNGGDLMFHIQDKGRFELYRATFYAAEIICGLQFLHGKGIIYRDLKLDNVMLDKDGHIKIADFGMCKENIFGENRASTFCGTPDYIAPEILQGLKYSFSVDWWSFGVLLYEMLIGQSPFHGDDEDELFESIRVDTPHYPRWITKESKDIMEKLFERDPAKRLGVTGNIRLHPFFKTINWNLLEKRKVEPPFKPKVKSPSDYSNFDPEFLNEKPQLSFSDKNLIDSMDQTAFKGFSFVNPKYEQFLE
T1 sequence (P31399 2-161 partner limits assumed): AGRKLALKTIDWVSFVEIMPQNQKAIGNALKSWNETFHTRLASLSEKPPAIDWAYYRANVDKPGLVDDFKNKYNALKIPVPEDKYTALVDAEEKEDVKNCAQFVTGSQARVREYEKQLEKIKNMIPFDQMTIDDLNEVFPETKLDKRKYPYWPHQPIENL
The assay can be described thus: δPKC co-immunoprecipitation with dF1Fo in NCM mitochondria after phorbol ester. In kind it is cell-based. Particulars: 100 nM 4-β PMA, 20 min, NCMs. The procedure:
FIGS. 1A-1B: Delta protein kinase C (δPKC) co-immunoprecipitates (co-IPs) with the “d” subunit of F1Fo ATP synthase (dF1Fo) following 100 nM 4-β PMA treatment. Neonatal cardiac myocytes (NCMs) were treated with 100 nM 4-α PMA (0 nM in Figure), 3 nM 4-β PMA for 1 hr. or 100 nM 4-β PMA for 20 min. Mitochondria were isolated using Percoll/Optiprep density gradients and then subjected to immunoprecipitations using antisera to dF1Fo. IPs were resolved by […] and transferred onto nitrocellulose paper (NCP) followed by Western blot analyses using antisera against αPKC, δPKC, εPKC and ζPKC. FIG. 1A, representative autoradiographs for each PKC isozyme are shown. FIG. 1B, mean±S.E. densitometry values for three independent myocyte preparations. Asterisks indicate significant differences between 4-α PMA and 3 nM or 100 nM 4-β PMA (p<0.05). # indicates statistically significant differences between 3 and 100 nM 4-β PMA (p<0.05).
Phorbol esters such as 4-β phorbol 12-myristate-13-acetate (4-β PMA), are well known activators of most PKC isozymes and should be useful in determining if one or more PKC isozymes induced effects on the F1Fo complex. […] In FIG. 1, 4-α PMA is shown as “0” concentration and […] values are reported for 3-100 nM concentrations. IPs were next subjected to Western blot analyses with anti-PKC isozyme-selective antisera. […]

Assay [4] deals with T2, δPKC binding to dF1Fo (Rattus norvegicus, UniProt P09215).
T2 construct: with purified rat brain PKC (mixture of PKC isozymes); from tissue; host or cells: PKC from rat brain; F1Fo ATPase holo-enzyme from adult rat cardiac ventricle
T2 sequence (P09215 whole entry): as the sequence (P09215 whole entry) above
Description: PKC overlay binding assay. Particulars: overlay with purified PKC isozymes, DG/PS; read-out: IC50 for modulation of δPKC-dF1Fo binding.

The test system of assay [5] is isolated rat hearts, ischemia/reperfusion injury. The assay can be described thus: Infarct size (TTC staining) after ischemia/reperfusion in isolated rat hearts.
Description: Hearts were excised from 2 month-old Sprague-Dawley rats and subjected to Langendorff-mode perfusion with oxygenated Kreb's buffer. Following a 20 min equilibration to attain stable beating hearts either were perfused continuously for 110 minutes (Con) or were subjected to 20 minutes of global no-flow ischemia and then 90 minutes of oxygenated reperfusion (IR). For groups receiving the δPKC-dF1Fo inhibitor or facilitator peptides (complete amino acid sequences shown in FIG. 13) 20 nM concentrations of the peptides were given at the onset of the 90 minute reperfusion period for 20 minutes. At the termination of experimentation atria were removed and ventricles were rapidly washed in chilled Kreb's buffer and partially frozen to facilitate cutting the hearts into sections. […]
Histograms represent mean±S.E. infarction expressed as a percentage of the entire left ventricular area. […]
The effects of the peptides of the present invention on infarct size following IR injury in the Langendorff model was assessed, Hearts were perfused in the absence of peptide, under normoxic conditions for 110 minutes (Con), or were given a 20 minute global, no flow, ischemia exposure followed by normoxic perfusion for 90 minutes. δPKC-dF1Fo modulatory peptides (20 nM) were administered at the onset of reperfusion for 20 minutes. […]

Peptide text beside a SMILES is read from it.

Turning to `CN(N=O)C(=O)N[C@H]1C(O)O[C@H](CO)[C@@H](O)[C@@H]1O` (mixture of isomers) [STZ, streptozotocin], the “decrease of myocardial ATP levels” value in assay [1] is listed as 2.3±0.1 fold. The “increase in mitochondrial δPKC levels” value in assay [2] is recorded as “greater than 10 fold”.
`CCCCCCCCCCCCCC(=O)O[C@@H]1[C@@H](C)[C@@]2(O)[C@@H](C=C(CO)C[C@]3(O)C(=O)C(C)=C[C@@H]23)[C@@H]2C(C)(C)[C@]12OC(C)=O` [4-β PMA, 4-β phorbol 12-myristate-13-acetate]: the “increase of δPKC-dF1Fo co-IP above 3 nM 4-β PMA-induced levels” value in assay [3] is reported as 3.4±0.3 fold.
What is called IC50 is the concentration that inhibits the measured activity by half. Turning to `CC[C@H](C)[C@H](NC(=O)[C@@H](NC(=O)[C@H](CCCCN)NC(=O)[C@H](CC(C)C)NC(=O)[C@H](C)NC(=O)[C@H](CC(C)C)NC(=O)[C@H](CCCCN)NC(=O)[C@H](CCCNC(=N)N)NC(=O)CNC(=O)[C@H](C)N)[C@@H](C)O)C(=O)N[C@@H](CC(=O)O)C(=O)N[C@@H](Cc1c[nH]c2ccccc12)C(=O)N[C@H](C(=O)N[C@@H](CO)C(=O)N[C@@H](Cc1ccccc1)C(=O)O)C(C)C` [SEQ ID NO: 1, AGRKLALKTIDWVSF] (H-AGRKLALKTIDWVSF-OH; N-terminus and C-terminus assumed), in assay [4], the IC50 is approximately 300 µM.
Consider `CC[C@H](C)[C@H](NC(=O)[C@H](CCSC)NC(=O)[C@H](CC(N)=O)NC(=O)[C@H](CCCCN)NC(=O)[C@@H](NC(=O)[C@H](CCCCN)NC(=O)[C@H](CCC(=O)O)NC(=O)[C@H](CC(C)C)NC(=O)[C@H](CCC(N)=O)NC(=O)[C@H](CCCCN)NC(=O)[C@H](CCC(=O)O)NC(=O)[C@H](Cc1ccc(O)cc1)NC(=O)[C@H](CCC(=O)O)NC(=O)[C@H](CCCNC(=N)N)NC(=O)[C@@H](NC(=O)[C@@H](N)CCCNC(=N)N)C(C)C)[C@@H](C)CC)C(=O)O` [SEQ ID NO: 2, RVREYEKQLEKIKNMI] (H-RVREYEKQLEKIKNMI-OH; N-terminus and C-terminus assumed), for which the IC50 in assay [4] was approximately 300 µM.
Take “YGRKKRRQRRR-MLATRALSLIGKRAISTSVC-RVRE YEKQLEKIKNMI-DYKDDDDK (YGRKKRRQRRRMLATRALSLIGKRAISTSVCRVREYEKQLEKIKNMIDYKDDDDK; sequence of mitochondrial-targeted facilitator of dPKC-dF1Fo interaction) [PKC-dF1Fo agonist peptide]”: the enhancement of infarction in assay [5] was found to be 27±3%.

The values above are taken from patent publication US8754051B2, “Peptide modulators of the δPKC interaction with the d subunit of F1Fo ATP synthase/ATPase and uses thereof” (Georgia Regents Research Institute, Inc., priority 2009, dated 2014).
